Measurements as given in US20260199484A1, “PROTAC DEGRADERS OF MLLT1 AND/OR MLLT3” (DARK BLUE THERAPEUTICS LTD, priority 2024, published 2026).

Target: T1, MLLT1 (Mus musculus, UniProt F6UGX7)
T1 construct: endogenous in cells; host or cells: NIH/3T3 (ATCC CRL-1658)
T1 sequence (F6UGX7 1-547): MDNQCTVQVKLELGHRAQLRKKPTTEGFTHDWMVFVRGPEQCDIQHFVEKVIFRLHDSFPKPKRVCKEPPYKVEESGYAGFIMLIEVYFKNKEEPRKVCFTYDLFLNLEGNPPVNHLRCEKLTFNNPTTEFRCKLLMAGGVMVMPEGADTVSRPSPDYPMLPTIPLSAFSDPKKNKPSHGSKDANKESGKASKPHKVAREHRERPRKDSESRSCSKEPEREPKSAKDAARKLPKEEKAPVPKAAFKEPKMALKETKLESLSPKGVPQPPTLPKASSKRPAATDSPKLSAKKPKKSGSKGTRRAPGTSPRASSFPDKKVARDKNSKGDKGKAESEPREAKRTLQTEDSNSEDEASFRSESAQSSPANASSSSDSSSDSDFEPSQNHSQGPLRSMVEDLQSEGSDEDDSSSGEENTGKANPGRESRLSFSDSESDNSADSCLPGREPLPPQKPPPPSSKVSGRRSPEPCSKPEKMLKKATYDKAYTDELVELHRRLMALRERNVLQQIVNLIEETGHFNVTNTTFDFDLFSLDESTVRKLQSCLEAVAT
Experiment: MLLT1 degradation assay in NIH/3T3 cells (JESS, 5 h)
Format: cell-based
Procedure: MLLT1 degradation efficacy of compounds was tested in an automated chemiluminescent detection system (JESS, Cat #004-650). NIH/3T3 (#CRL-1658, ATCC) were seeded at a density of 0.5 million cells/well in a cell culture treated 6-well cell culture plate in 2 mL of complete medium (DMEM+10% FBS+1× Penicillin-Streptomycin) and incubated at 37° C., 5% CO2. The next day, 10 mM DMSO stocks were prepared, and cells were treated with eight concentrations of test compound, starting from 100 nM, 5-fold dilution, at a final DMSO concentration of 0.1% and incubated for 5 h at 37° C., 5% CO2. Post incubation, cells were washed with HBSS and lysed in 70 μL of RIPA buffer supplemented with Protease inhibitors (sc-24948; Santa Cruz). Protein estimation was done using BCA protein assay kit (23228; Pierce). […] Post run, data was analysed using “Compass for SW” software for chemiluminescent detection. […]
MLLT3 degradation efficacy of compounds was tested in an automated chemiluminescent detection system (JESS, Cat #004-650). […] Post run, data was analysed using “Compass for SW” software for chemiluminescent detection. […]

Cc1nn(CCCCCCCC#Cc2cccc3c2CN(C2CCC(=O)NC2=O)C3=O)c2cc(C(=O)Nc3cc4[nH]c([C@H]5CCCN5C)cc4cn3)ccc12 (mixture of isomers) [Example 1, 1-(9-(2-(2,6-dioxopiperidin-3-yl)-1-oxoisoindolin-4-yl)non-8-yn-1-yl)-3-methyl-N-(2-((R)-1-methylpyrrolidin-2-yl)-1H-pyrrolo[3,2-c]pyridin-6-yl)-1H-indazole-6-carboxamide]
Dmax (NIH3T3, read-out: MLLT1 Dmax in NIH/3T3 cells): 90%
DC50 (NIH/3T3 cells, 5 h): 1.4 nM
